Data as given in US10544125B2, “Process for preparing an anti-cancer agent, 1-((4-(4-fluoro-2-methyl-1H-indol-5-yloxy)-6-methoxyquinolin-7-yloxy)methyl)cyclopropanamine, its crystalline form and its salts” (Advenchen Pharmaceuticals, LLC, priority 2015, dated 2020).
Values after ≈ are worked out from the molar mass of the structure shown. Counter-ions that a name gives are not always drawn.

What was measured:
Ishikawa (endometrial) = assay: In vitro MTT (proliferation) assay; format: cell-based, human; conditions: Ishikawa cancer cell line
Protocol: (§1) In vitro MTT (proliferation) assay was performed with compound from above examples to give following inhibition results: […]

laser-induced CNV = assay: Mouse model of laser-induced choroidal neovascularization (CNV); format: in vivo, C57 BL/6 mice; conditions: for reduction in average size of laser-induced CNV: C57 BL/6 mice, day -1 to day 10, FIG. 18
Protocol: A mouse model of laser-induced choroidal neovascularization (CNV)
(1) Experiments were performed in C57 BL/6 mice at 10 to 12 weeks of age. Laser CNV was induced with a 532 nm diode laser mounted on a slit lamp, using […], 100 ms duration and 100 mW laser energy. Each eye received 4 laser burns. Stock solution of AL3818-H1 was made by dissolving the compound in water to 25 mg/ml concentration, and further diluted to working solution of either 250 or 25 μg/ml in water. Mice were orally gavaged at dosage of 2.5 or 0.25 mg/kg body weight, in volume of 200 μl per 20 gram of body weight, once every day starting at one day before laser treatment until 10 days afterwards. Control group mice will receive gavage with water which is used to dissolve the compound. By the end of the experiment, mice were subjected to fluorescence angiography to exclude the spots with hemorrhage and other mechanic injuries caused by the procedures. Mice were sacrificed and CNV size was measured by immunostaining of RPE/choroid flat mount co-stained with FITC-conjugated isolectin B4 and anti-ICAM2 antibody. For groups of control, 0.25 mg/kg and 2.5 mg/kg, we examined 43, 44 and 49 eyes on RPE/choroid flat mount. After immunostaining, images were taken on a Zeiss fluorescence microscope. CNV size was measured in Image J software. […] (2) The potential synergistic or additive effects between AL3818-M and anti-VEGF antibody was also studied. Immediately after laser burn, mice were treated with a monoclonal VEGF neutralizing antibody from R&D Systems (mAb AF564) at 1 μg dosage by intravitreal injection. We had 4 experimental groups: control (treated with water), AL3818-M, anti-VEGF, and AL3818-M+anti-VEGF. A total of 75 laser spots were analyzed. Mice in control or AL3818-M alone group received the intravitreal injection of saline in the same 2 μl volume.

NC1-H157 (lung) = assay: In vitro MTT (proliferation) assay; format: cell-based; conditions: NC1-H157 cancer cell line
Protocol: as §1

HCT1 16 (colon) = assay: In vitro MTT (proliferation) assay; format: cell-based; conditions: HCT1 16 cancer cell line
Protocol: as §1

PANC-1 (pancreatic) = assay: In vitro MTT (proliferation) assay; format: cell-based; conditions: PANC-1 cancer cell line
Protocol: as §1

Saos-2 (sarcoma) = assay: In vitro MTT (proliferation) assay; format: cell-based; conditions: Saos-2 cancer cell line
Protocol: as §1

SKOV3 (ovarian) = assay: In vitro MTT (proliferation) assay; format: cell-based; conditions: SKOV3 cancer cell line
Protocol: as §1

MDA-MB-231 (breast) = assay: In vitro MTT (proliferation) assay; format: cell-based; conditions: MDA-MB-231 cancer cell line
Protocol: as §1

MKN45 (gastric) = assay: In vitro MTT (proliferation) assay; format: cell-based; conditions: MKN45 cancer cell line
Protocol: as §1

SW579 (thyroid) = assay: In vitro MTT (proliferation) assay; format: cell-based; conditions: SW579 cancer cell line
Protocol: as §1

Hela (cervical) = assay: In vitro MTT (proliferation) assay; format: cell-based; conditions: Hela cancer cell line
Protocol: as §1

BEL7404 (liver) = assay: In vitro MTT (proliferation) assay; format: cell-based; conditions: BEL7404 cancer cell line
Protocol: as §1

PC-3 (prostate) = assay: In vitro MTT (proliferation) assay; format: cell-based; conditions: PC-3 cancer cell line
Protocol: as §1

[1] = Conventional water solubility test; format: physicochemical
Source text: Conventional water solubility test has been conducted to give the following results: […]

IC50 (NC1-H157 (lung)) [µM]	IC50 (MKN45 (gastric)) [µM]	IC50 (SW579 (thyroid)) [µM]	IC50 (BEL7404 (liver)) [µM]	IC50 (PC-3 (prostate)) [µM]	water solubility [1] [µg/mL]	IC50 (HCT1 16 (colon); MTT (proliferation) assay) [µM]	IC50 (PANC-1 (pancreatic); MTT (proliferation) assay) [µM]	IC50 (Saos-2 (sarcoma); MTT (proliferation) assay) [µM]	IC50 (SKOV3 (ovarian); MTT (proliferation) assay) [µM]	IC50 (MDA-MB-231 (breast); MTT (proliferation) assay) [µM]	IC50 (Hela (cervical)) [µM]	solubility [1] [µg/mL]	SMILES	IC50 (Ishikawa (endometrial)) [µM]	further results
7.18	1.77	2.33	2.75	5.53	6000	–	–	–	–	–	–	–	COc1cc2c(Oc3ccc4[nH]c(C)cc4c3F)ccnc2cc1OCC1(N)CC1 [AL3818-H1, 1-((4-(4-Fluoro-2-methyl-1H-indol-5-yloxy)-6-methoxy-quinolin-7-yloxy)-methyl)cyclopropanamine Bishydrochloride Acid Salt]	5.67	reduction in average size of laser-induced CNV (laser-induced CNV; oral gavage 0.25 mg/kg body weight once daily): ~70%; reduction in average size of laser-induced CNV (laser-induced CNV; oral gavage 2.5 mg/kg body weight once daily): ~70%; IC50 (HCT1 16 (colon); Homo sapiens, HCT-116, MTT (proliferation) assay): 3.45 µM; IC50 (PANC-1 (pancreatic); Homo sapiens, PANC-1, MTT (proliferation) assay): 1.58 µM; IC50 (Saos-2 (sarcoma); Homo sapiens, SAOS-2, MTT (proliferation) assay): 4.68 µM; IC50 (SKOV3 (ovarian); Homo sapiens, SK-OV-3, MTT (proliferation) assay): 5.34 µM; IC50 (MDA-MB-231 (breast); Homo sapiens, MDA-MB-231, MTT (proliferation) assay): 10.2 µM; IC50 (Hela (cervical); Homo sapiens, HeLa): 3.7 µM
2.29	3.9	1.29	1.74	3.88	7000	3.34	1.55	4.98	5.7	5.71	4.07	–	COc1cc2c(Oc3ccc4[nH]c(C)cc4c3F)ccnc2cc1OCC1(N)CC1.Cl.Cl.O [AL3818-H2, 1-((4-(4-Fluoro-2-methyl-1H-indol-5-yloxy)-6-methoxy-quinolin-7-yloxy)methyl)cyclopropanamine bishydrochloridehydrate Acid Salt]	1.56	–
2.02	2.65	1.15	1.15	3.62	–	4.62	1.15	5.49	6.56	5.37	3.94	500	COc1cc2c(Oc3ccc4[nH]c(C)cc4c3F)ccnc2cc1OCC1(N)CC1.O=C(O)/C=C\C(=O)O.O=C(O)/C=C\C(=O)O [AL3818-M, 1-((4-(4-Fluoro-2-methyl-1H-indol-5-yloxy)-6-methoxy-quinolin-7-yloxy)-methyl)cyclopropanamine Bismaleic Acid Salt]	1.34	reduction in laser CNV as compared to the control group (laser-induced CNV; 0.15 mg/kg together with 1 μg anti-VEGF antibody (mAb AF564) intravitreal, P<0.01, FIG. 19): ~30%
2.28	4.16	2.61	1.43	4.41	–	3.94	1.24	5.68	7.6	6.1	4.66	100	COc1cc2c(Oc3ccc4[nH]c(C)cc4c3F)ccnc2cc1OCC1(N)CC1.O=C(O)CCC(=O)O [AL3818-S, 1-((4-(4-Fluoro-2-methyl-1H-indol-5-yloxy)-6-methoxy-quinolin-7-yloxy)methyl)cyclopropanamine Succinic Acid Salt]	1.32	–
1.83	3.11	1	0.93	5.11	20 (≈ 49.1 µM)	3.25	1.34	5.13	5.97	5.56	3.23	–	COc1cc2c(Oc3ccc4[nH]c(C)cc4c3F)ccnc2cc1OCC1(N)CC1 [AL3818-F, 1-((4-(4-Fluoro-2-methyl-1H-indol-5-yloxy)-6-methoxyquinolin-7-yloxy)methyl)cyclopropanamine]	1.04	–
